Tests used:
[1] = target: T1, Polyunsaturated fatty acid 5-lipoxygenase (Rattus norvegicus, UniProt P12527); assay: In vitro inhibition of RBL-1 5-lipoxygenase; Value ranges from 1.8-2.8; assay type: cell-based
T1 sequence (P12527 whole entry): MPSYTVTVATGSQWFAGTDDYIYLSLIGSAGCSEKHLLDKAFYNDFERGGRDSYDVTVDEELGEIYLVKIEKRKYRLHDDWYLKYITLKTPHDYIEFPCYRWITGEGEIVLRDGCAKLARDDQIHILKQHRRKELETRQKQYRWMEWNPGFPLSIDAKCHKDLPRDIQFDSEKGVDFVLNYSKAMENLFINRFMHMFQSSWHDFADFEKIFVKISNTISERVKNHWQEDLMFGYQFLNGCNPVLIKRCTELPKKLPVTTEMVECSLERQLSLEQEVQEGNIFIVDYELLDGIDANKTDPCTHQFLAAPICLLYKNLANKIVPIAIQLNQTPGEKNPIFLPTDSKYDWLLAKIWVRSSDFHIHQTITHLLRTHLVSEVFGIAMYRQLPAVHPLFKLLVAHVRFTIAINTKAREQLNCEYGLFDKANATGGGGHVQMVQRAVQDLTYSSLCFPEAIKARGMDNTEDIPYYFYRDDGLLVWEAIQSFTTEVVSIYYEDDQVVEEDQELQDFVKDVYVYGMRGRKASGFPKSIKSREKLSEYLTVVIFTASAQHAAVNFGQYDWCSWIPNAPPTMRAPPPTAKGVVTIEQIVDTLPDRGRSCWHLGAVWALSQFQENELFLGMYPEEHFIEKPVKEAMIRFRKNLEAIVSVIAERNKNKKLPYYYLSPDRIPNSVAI

[2] = target: T1, Polyunsaturated fatty acid 5-lipoxygenase; assay: In vitro inhibition of RBL-1 5-lipoxygenase; Value ranges from 0.4-2.2; assay type: cell-based
[3] = target: T1, Polyunsaturated fatty acid 5-lipoxygenase; assay: In vitro inhibition of RBL-1 5-lipoxygenase; Value ranges from 0.3-1.6; assay type: cell-based
[4] = target: T1, Polyunsaturated fatty acid 5-lipoxygenase; assay: In vitro inhibition of RBL-1 5-lipoxygenase; assay type: cell-based
[5] = test system: Rattus norvegicus; assay: (§1) In vivo activity against the release of SRS(slow releasing substance)-A in a rat passive intraperitoneally; assay type: functional; design: concentration or dose not given beside the values
[6] = target: T1, Polyunsaturated fatty acid 5-lipoxygenase; assay: In vitro inhibition of RBL-1 5-lipoxygenase; Value ranges from 3.3-3.5; assay type: cell-based
[7] = target: T1, Polyunsaturated fatty acid 5-lipoxygenase; assay: In vitro inhibition of RBL-1 5-lipoxygenase; Value ranges from 1.0-2.4; assay type: cell-based
[8] = target: T1, Polyunsaturated fatty acid 5-lipoxygenase; assay: In vitro inhibition of RBL-1 5-lipoxygenase; Value ranges from 1.0-1.7; assay type: cell-based
[9] = target: T1, Polyunsaturated fatty acid 5-lipoxygenase; assay: In vitro inhibition of RBL-1 5-lipoxygenase; Value ranges from 4.0-6.4; assay type: cell-based
[10] = target: T1, Polyunsaturated fatty acid 5-lipoxygenase; assay: In vitro inhibition of RBL-1 5-lipoxygenase; Value ranges from 1.7-2.6; assay type: cell-based
[11] = test system: Rattus norvegicus; assay: as §1; assay type: functional
[12] = test system: Rattus norvegicus; assay: Inhibition of monocyte accumulation (exudate volume) in a rat pleural exudate model of inflammation at 6 ug/kg administered perorally; assay type: functional; settings: po
[13] = test system: Rattus norvegicus; assay: Inhibition of monocyte accumulation (exudate volume) in a rat pleural exudate model of inflammation at 3 ug/kg administered perorally; assay type: functional; settings: po
[14] = test system: Rattus norvegicus; assay: Inhibition of monocyte accumulation (exudate volume) in a rat pleural exudate model of inflammation at 24 ug/kg administered perorally; assay type: functional; settings: po
[15] = target: T1, Polyunsaturated fatty acid 5-lipoxygenase; assay: In vitro inhibition of RBL-1 5-lipoxygenase; Value ranges from 1.0-1.5; assay type: cell-based
[16] = target: T1, Polyunsaturated fatty acid 5-lipoxygenase; assay: In vitro inhibition of RBL-1 5-lipoxygenase; Value ranges from 2.46-2.63; assay type: cell-based
[17] = target: T2, Polyunsaturated fatty acid 5-lipoxygenase (Rattus norvegicus) (UniProt P12527); assay: In vitro inhibition of RBL-1 5-lipoxygenase at 20 uM; assay type: cell-based
T2 sequence (whole entry): T1 sequence (P12527 whole entry)

[18] = target: T1, Polyunsaturated fatty acid 5-lipoxygenase; assay: In vitro inhibition of RBL-1 5-lipoxygenase; Value ranges from 1.1-1.6; assay type: cell-based
[19] = target: T1, Polyunsaturated fatty acid 5-lipoxygenase; assay: In vitro inhibition of RBL-1 5-lipoxygenase; Value ranges from 1.8-5.7; assay type: cell-based
[20] = target: T1, Polyunsaturated fatty acid 5-lipoxygenase; assay: In vitro inhibition of RBL-1 5-lipoxygenase; Value ranges from 0.9-4.0; assay type: cell-based
[21] = test system: Rattus norvegicus; assay: Inhibition of monocyte accumulation (exudate volume) in a rat pleural exudate model of inflammation at 45 ug administered perorally; assay type: functional
[22] = test system: Rattus norvegicus; assay: Inhibition of monocyte accumulation (DNA content) in a rat pleural exudate model of inflammation at 45 ug administered perorally; assay type: functional
[23] = target: T1, Polyunsaturated fatty acid 5-lipoxygenase; assay: In vitro inhibition of RBL-1 5-lipoxygenase; Value ranges from 1.4-3.2; assay type: cell-based
[24] = target: T1, Polyunsaturated fatty acid 5-lipoxygenase; assay: In vitro inhibition of RBL-1 5-lipoxygenase; Value ranges from 1.3-2.8; assay type: cell-based
[25] = target: T1, Polyunsaturated fatty acid 5-lipoxygenase; assay: In vitro inhibition of RBL-1 5-lipoxygenase; Value ranges from 4.9-11.6; assay type: cell-based
[26] = target: T1, Polyunsaturated fatty acid 5-lipoxygenase; assay: In vitro inhibition of RBL-1 5-lipoxygenase; Value ranges from 7.5-11.8; assay type: cell-based
[27] = target: T1, Polyunsaturated fatty acid 5-lipoxygenase; assay: In vitro inhibition of RBL-1 5-lipoxygenase; Value ranges from […]; assay type: cell-based
[28] = target: T1, Polyunsaturated fatty acid 5-lipoxygenase; assay: In vitro inhibition of RBL-1 5-lipoxygenase; Value ranges from 3.8-7.1; assay type: cell-based
[29] = target: T1, Polyunsaturated fatty acid 5-lipoxygenase; assay: In vitro inhibition of RBL-1 5-lipoxygenase; Value ranges from 1.9-2.4; assay type: cell-based

In the case of `Cc1ccc(O)c2[nH]c(Cc3cccc4ccccc34)nc12`, the IC50 [1] is reported as 2.3 µM.
`Cc1ccc(O)c2nc(Cc3ccccc3)[nH]c12` gave an IC50 [2] of 1.2 µM.
Work on `Cc1ccc(O)c2[nH]c(Cc3ccc(Cl)cc3)nc12` yielded an IC50 [3] of 1 µM.
With `Oc1cccc2[nH]c(Cc3ccccc3)nc12` the IC50 [4] was 20 µM.
Work on `COc1ccccc1Cc1nc2c(C)ccc(O)c2[nH]1.Cl` yielded an Inhibition [5] of 64% and an IC50 [6] of 3.4 µM.
In the case of `COc1cccc(Cc2nc3c(C)ccc(O)c3[nH]2)c1`, the IC50 [7] is reported as 1.7 µM.
Work on `Cc1ccc(O)c2[nH]c(-c3ccc(N(C)C)cc3)nc12` yielded an IC50 [8] of 1.3 µM.
Work on `Cc1ccc(O)c2nc(Cc3cccnc3)[nH]c12` yielded an IC50 [9] of 5 µM.
`CC(Cc1ccc(O)c(O)c1)C(C)Cc1ccc(O)c(O)c1` (stereo not given) [NORDIHYDROGUAIARETIC ACID] was tested, and the Inhibition [5] was 64%.
With `COc1ccc(Cc2nc3c(C)ccc(O)c3[nH]2)cc1.Cl` the IC50 [10] was 2.1 µM and the Inhibition [11] was 58%.
`O=C1CCN(c2ccccc2)N1` [PHENIDONE] showed an Inhibition [5] of 70%.
With `Cc1cc(C(C)(C)C)c(O)c2[nH]c(C(F)(F)F)nc12` the inhibition in vivo at 0.006 mg/kg [12] was 49%, the inhibition in vivo at 0.003 mg/kg [13] was 52% and the inhibition in vivo at 0.024 mg/kg [14] was 48%.
Work on `Cc1ccc(O)c2[nH]c(-c3ccccc3)nc12` yielded an IC50 [15] of 1.2 µM.
Work on `Cc1ccc(Cc2nc3c(O)ccc(C)c3[nH]2)cc1` yielded an IC50 [16] of 2.54 µM.
`NC1=NN(c2cccc(C(F)(F)F)c2)CC1` [BW-755C] gave an Inhibition [5] of 25%.
With `Cc1ccc(O)c2[nH]c(Cc3ccc4ccccc4c3)nc12` the inhibition [17] was > 90%.
`CCCc1nc2c(C)ccc(O)c2[nH]1` gave an IC50 [4] of ~10 µM.
`Cc1cc(C(C)(C)C)c(O)c2[nH]c(Cc3ccccc3)nc12` gave an IC50 [18] of 1.3 µM.
`Cc1ccc(O)c2[nH]c(-c3ccco3)nc12` showed an IC50 [19] of 3.3 µM.
With `COc1ccc(Cc2nc3c(O)cccc3[nH]2)cc1` the IC50 [4] was 20 µM.
`COc1ccc(Cc2nc3c(C)cc(C(C)(C)C)c(O)c3[nH]2)cc1` was tested, and the IC50 [20] was 2.2 µM.
For `C[C@@H]1C[C@H]2[C@@H]3CCC4=CC(=O)C=C[C@]4(C)[C@@]3(F)[C@@H](O)C[C@]2(C)[C@@]1(O)C(=O)CO` [DEXAMETHASONE], the Inhibition [21] was 80% and the Inhibition [22] was 71%.
`CC1=C(C)C(=O)C(CCCCC#CCCCC#CCO)=C(C)C1=O` [DOCEBENONE] showed an Inhibition [5] of 77% and an IC50 [4] of 2 µM.
For `COc1ccc(-c2nc3c(C)ccc(O)c3[nH]2)cc1`, the IC50 [23] was 2.2 µM.
For `Cc1ccc(O)c2[nH]c(CCc3ccccc3)nc12`, the IC50 [24] was 2.1 µM.
Work on `Cc1ccc(O)c2[nH]c(Cc3ccc(O)cc3)nc12.Cl` yielded an Inhibition [5] of 58% and an IC50 [25] of 6.9 µM.
In the case of `COc1cc(Cc2nc3c(C)ccc(O)c3[nH]2)cc(OC)c1OC.Cl`, the Inhibition [5] is reported as 59% and the IC50 [26] is reported as 9.7 µM.
`Cc1ccc(O)c2[nH]c(-c3cccc(C(F)(F)F)c3)nc12` was tested, and the inhibition [17] was > 90%.
With `CCOc1ccc(Cc2nc3c(C)ccc(O)c3[nH]2)cc1` the IC50 [27] was 3 µM.
`COc1ccc(Cc2nc3c(C)ccc(O)c3[nH]2)cc1OC.Cl` showed an Inhibition [5] of 55% and an IC50 [28] of 5.2 µM.
`Cc1ccc(O)c2[nH]c(Cc3cccs3)nc12` was tested, and the IC50 [29] was 2.1 µM.
